molecular target: T1, human Werner helicase (WRN-BV08, Uniprot Q14191, amino acids 517-1235 with L1074F point mutation) (Homo sapiens, UniProt Q14191, L1074F); experiment: WRN (BV08) ADP-Glo Assay; format: biochemical; settings: 0.15 nM WRN, 5 μM ATP, 0.1 nM DNA duplex, 15 min preincubation, 60 min at 25° C., pH 7.5, 1% DMSO; read-out: ADP-Glo_hWRN_IC50
T1 construct: Uniprot Q14191, amino acids 517-1235 with L1074F point mutation; TEV-cleavable 8×His (C, cleaved yes); made in house; host or cells: Sf9 insect cells (baculovirus)
T1 sequence (Q14191 with tags, fused parts or gaps L1074F limits assumed): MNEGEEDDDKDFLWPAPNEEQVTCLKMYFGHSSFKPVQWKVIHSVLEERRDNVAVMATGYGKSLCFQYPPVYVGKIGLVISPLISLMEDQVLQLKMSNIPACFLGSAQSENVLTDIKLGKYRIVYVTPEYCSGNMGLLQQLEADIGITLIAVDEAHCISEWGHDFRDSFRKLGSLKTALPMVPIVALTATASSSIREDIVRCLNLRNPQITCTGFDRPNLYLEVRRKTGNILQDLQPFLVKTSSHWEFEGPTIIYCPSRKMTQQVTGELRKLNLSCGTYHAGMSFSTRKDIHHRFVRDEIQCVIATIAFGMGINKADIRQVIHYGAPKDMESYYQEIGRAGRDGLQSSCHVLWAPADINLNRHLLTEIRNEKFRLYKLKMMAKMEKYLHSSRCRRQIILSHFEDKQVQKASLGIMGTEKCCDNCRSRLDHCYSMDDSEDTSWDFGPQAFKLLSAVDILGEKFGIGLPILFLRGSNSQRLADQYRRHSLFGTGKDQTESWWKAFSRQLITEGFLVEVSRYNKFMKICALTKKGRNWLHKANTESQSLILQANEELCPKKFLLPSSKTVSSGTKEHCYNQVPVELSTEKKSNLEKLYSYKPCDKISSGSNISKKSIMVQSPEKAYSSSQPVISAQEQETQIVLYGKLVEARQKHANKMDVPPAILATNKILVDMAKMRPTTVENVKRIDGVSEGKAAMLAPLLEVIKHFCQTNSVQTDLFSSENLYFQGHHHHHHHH
In short: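 ADP produced by WRN helicase fragment 517-1235 (L1074F, baculovirus/Sf9, untagged) read by ADP-Glo luminescence after 60 min at 25 °C with 5 μM ATP and 0.1 nM duplex DNA, following 15 min compound preincubation. Final enzyme 0.15 nM in Bicine pH 7.5 buffer, 1% DMSO; 20 μM NSC-617145 defined full inhibition.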

SMILES	IC50
O=C(Cc1ccc(S(F)(F)(F)(F)F)cc1)N(Cc1nn[nH]n1)C1C=CS(=O)(=O)C1 (stereo not shown) [I-757, N-(1,1-dioxo-2,3-dihydro-1lambda6-thiophen-3-yl)-2-[4-(pentafluoro-lambda6-sulfanyl)phenyl]-N-[(2H-1,2,3,4-tetrazol-5-yl)methyl]acetamide]	> 50 µM
CC(=O)NCC(C(=O)N(Cc1ccncc1)C1C=CS(=O)(=O)C1)c1ccc(-c2ccc(F)cc2)cc1 (stereo not shown) [I-563, N-(1,1-dioxo-2,3-dihydro-1lambda6-thiophen-3-yl)-3-acetamido-2-{4′-fluoro-[1,1′-biphenyl]-4-yl}-N-[(pyridin-4-yl)methyl]propanamide]	> 50 µM
O=C(CN1CCC(c2ccccc2)CC1)N(Cc1ccncc1)C1C=CS(=O)(=O)C1 (stereo not shown) [I-571, N-(1,1-dioxo-2,3-dihydro-1lambda6-thiophen-3-yl)-2-(4-phenylpiperidin-1-yl)-N-[(pyridin-4-yl)methyl]acetamide]	> 50 µM
COCc1cccn1-c1ccc(CC(=O)N(Cc2ccccc2)C2C=CS(=O)(=O)C2)cc1 (stereo not shown) [I-568, N-benzyl-N-(1,1-dioxo-2,3-dihydro-1lambda6-thiophen-3-yl)-2-{4-[2-(methoxymethyl)-1H-pyrrol-1-yl]phenyl}acetamide]	> 50 µM
CC(C)(O)c1cc(CN(C(=O)Cc2ccc(-n3cccc3)cc2F)C2C=CS(=O)(=O)C2)ccn1 (single isomer, unassigned) [I-469]	> 50 µM
O=C(Cc1cccc(Oc2ccccc2)c1)N(Cc1ccncc1)C1C=CS(=O)(=O)C1 (stereo not shown) [I-510, N-(1,1-dioxo-2,3-dihydro-1lambda6-thiophen-3-yl)-2-(3-phenoxyphenyl)-N-[(pyridin-4-yl)methyl]acetamide]	> 50 µM
Cc1c(CC(=O)N(Cc2ccncc2)C2C=CS(=O)(=O)C2)nnn1-c1ccccc1 (stereo not shown) [I-434, N-(1,1-dioxo-2,3-dihydro-1lambda6-thiophen-3-yl)-2-(5-methyl-1-phenyl-1H-1,2,3-triazol-4-yl)-N-[(pyridin-4-yl)methyl]acetamide]	> 50 µM
O=C(Cc1ccc(-n2cccc2)cc1)N(Cc1ccccc1CO)C1C=CS(=O)(=O)C1 (stereo not shown) [I-360, N-(1,1-dioxo-2,3-dihydro-1lambda6-thiophen-3-yl)-N-{[2-(hydroxymethyl)phenyl]methyl}-2-[4-(1H-pyrrol-1-yl)phenyl]acetamide]	10 to 50 µM
O=C(Cn1nnc(-c2ccccc2)n1)N(Cc1ccncc1)C1C=CS(=O)(=O)C1 (stereo not shown) [I-442, N-(1,1-dioxo-2,3-dihydro-1lambda6-thiophen-3-yl)-2-(5-phenyl-2H-1,2,3,4-tetrazol-2-yl)-N-[(pyridin-4-yl)methyl]acetamide]	> 50 µM
O=C(C1CCn2cc(C(F)(F)F)nc2C1)N(Cc1ccncc1)C1C=CS(=O)(=O)C1 (stereo not shown) [I-622]	> 50 µM
O=C(Cc1ccc(-n2cccc2)cc1)N(C1C=CS(=O)(=O)C1)C1CCC1 (stereo not shown) [I-533, N-cyclobutyl-N-(1,1-dioxo-2,3-dihydro-1lambda6-thiophen-3-yl)-2-[4-(1H-pyrrol-1-yl)phenyl]acetamide]	> 50 µM
O=C(c1ccncc1)N(CCc1ccc(-n2cccc2)cc1)C1C=CS(=O)(=O)C1 (stereo not shown) [I-553, N-(1,1-dioxo-2,3-dihydro-1lambda6-thiophen-3-yl)-N-{2-[4-(1H-pyrrol-1-yl)phenyl]ethyl}pyridine-4-carboxamide]	> 50 µM
O=C(Cc1cnn(C2CC2)c1)N(Cc1ccncc1)C1C=CS(=O)(=O)C1 (stereo not shown) [I-582, 2-(1-cyclopropyl-1H-pyrazol-4-yl)-N-(1,1-dioxo-2,3-dihydro-1lambda6-thiophen-3-yl)-N-[(pyridin-4-yl)methyl]acetamide]	> 50 µM
CN1CCc2c(ccn2-c2ccc(CC(=O)N(Cc3ccccc3)C3C=CS(=O)(=O)C3)cc2)C1 (stereo not shown) [I-456, N-benzyl-N-(1,1-dioxo-2,3-dihydro-1lambda6-thiophen-3-yl)-2-(4-{5-methyl-1H,4H,5H,6H,7H-pyrrolo[3,2-c]pyridin-1-yl}phenyl)acetamide]	> 50 µM
Cc1cnccc1CN(C(=O)Cc1ccc(-n2cccc2)cc1)C1C=CS(=O)(=O)C1 (stereo not shown) [I-313, N-(1,1-dioxo-2,3-dihydro-1lambda6-thiophen-3-yl)-N-[(3-methylpyridin-4-yl)methyl]-2-[4-(1H-pyrrol-1-yl)phenyl]acetamide]	10 to 50 µM

Results, then the compound that gave them:

IC50	SMILES
0.5 to 5 µM	COc1cc(CN(C(=O)Cc2ccc(-n3cccc3C)cc2F)C2C=CS(=O)(=O)C2)nc(OC)c1 (stereo not shown) [I-202, N-[(4,6-dimethoxypyridin-2-yl)methyl]-N-(1,1-dioxo-2,3-dihydro-1lambda6-thiophen-3-yl)-2-[2-fluoro-4-(2-methyl-1H-pyrrol-1-yl)phenyl]acetamide]
5 to 10 µM	O=C(Cn1ncc2cc(C(F)(F)F)ccc21)N(Cc1ccncc1)C1C=CS(=O)(=O)C1 (stereo not shown) [I-590, N-(1,1-dioxo-2,3-dihydro-1lambda6-thiophen-3-yl)-N-[(pyridin-4-yl)methyl]-2-[5-(trifluoromethyl)-1H-indazol-1-yl]acetamide]
< 0.5 µM	COc1cc(CN(C(=O)C(C(=O)N(C)C)c2ccc(-c3ccc(F)c(F)c3)cc2F)C2C=CS(=O)(=O)C2)ccn1 (single isomer, unassigned) [I-577, (2R**)-N-[(3R*)-1,1-dioxo-2,3-dihydro-1lambda6-thiophen-3-yl]-N-[(2-methoxypyridin-4-yl)methyl]-N′,N′-dimethyl-2-{3,3′,4′-trifluoro-[1,1′-biphenyl]-4-yl}propanediamide]
< 0.5 µM	O=C(Cn1cc(-c2ccc(F)c(F)c2)cn1)N(Cc1nc(C2CC2(F)F)cs1)C1C=CS(=O)(=O)C1 (stereo not shown) [I-718, N-{[4-(2,2-difluorocyclopropyl)-1,3-thiazol-2-yl]methyl}-2-[4-(3,4-difluorophenyl)-1H-pyrazol-1-yl]-N-(1,1-dioxo-2,3-dihydro-1lambda6-thiophen-3-yl)acetamide]
10 to 50 µM	O=C(Cc1ccc(C23CC(C2)C3)cc1)N(Cc1ccncc1)C1C=CS(=O)(=O)C1 (stereo not shown) [I-347, 2-(4-{bicyclo[1.1.1]pentan-1-yl}phenyl)-N-(1,1-dioxo-2,3-dihydro-1lambda6-thiophen-3-yl)-N-[(pyridin-4-yl)methyl]acetamide]
< 0.5 µM	CC(C)(O)c1cc(CN(C(=O)Cn2cc(-c3cccc(F)c3)cn2)C2C=CS(=O)(=O)C2)ccn1 (stereo not shown) [I-59, N-(1,1-dioxo-2,3-dihydro-1lambda6-thiophen-3-yl)-2-[4-(3-fluorophenyl)-1H-pyrazol-1-yl]-N-{[2-(2-hydroxypropan-2-yl)pyridin-4-yl]methyl}acetamide]
0.5 to 5 µM	O=C(Cc1ccc(-c2ccc(F)c(F)c2)cc1)N(Cc1ccncc1)C1C=CS(=O)(=O)C1 (stereo not shown) [I-143, 2-{3′,4′-difluoro-[1,1′-biphenyl]-4-yl}-N-(1,1-dioxo-2,3-dihydro-1lambda6-thiophen-3-yl)-N-[(pyridin-4-yl)methyl]acetamide]
< 0.5 µM	Cc1cccn1-c1ccc(CC(=O)N(Cc2nc3ccccc3s2)C2C=CS(=O)(=O)C2)c(F)c1 (stereo not shown) [I-73, N-[(1,3-benzothiazol-2-yl)methyl]-N-(1,1-dioxo-2,3-dihydro-1lambda6-thiophen-3-yl)-2-[2-fluoro-4-(2-methyl-1H-pyrrol-1-yl)phenyl]acetamide]
0.5 to 5 µM	CC(C)(O)c1ccc(CN(C(=O)Cc2ccc(S(F)(F)(F)(F)F)cc2)C2C=CS(=O)(=O)C2)cc1 (stereo not shown) [I-623, N-(1,1-dioxo-2,3-dihydro-1lambda6-thiophen-3-yl)-N-{[4-(2-hydroxypropan-2-yl)phenyl]methyl}-2-[4-(pentafluoro-lambda6-sulfanyl)phenyl]acetamide]
0.5 to 5 µM	Cc1cc(CN(C(=O)Cc2ccc(-n3cccc3)cc2)C2C=CS(=O)(=O)C2)ccn1 (stereo not shown) [I-207, N-(1,1-dioxo-2,3-dihydro-1lambda6-thiophen-3-yl)-N-[(2-methylpyridin-4-yl)methyl]-2-[4-(1H-pyrrol-1-yl)phenyl]acetamide]
0.5 to 5 µM	O=C(Cc1ccc(-c2ccc(F)cc2)cc1F)N(Cc1ccnc(OC2CC2)c1)C1C=CS(=O)(=O)C1 (stereo not shown) [I-110, N-[(2-cyclopropoxypyridin-4-yl)methyl]-2-{3,4′-difluoro-[1,1′-biphenyl]-4-yl}-N-(1,1-dioxo-2,3-dihydro-1lambda6-thiophen-3-yl)acetamide]
< 0.5 µM	O=C(Cn1cc(-c2ccc(F)cc2)cn1)N(Cc1nc(C2CC2)cs1)C1C=CS(=O)(=O)C1 (single isomer, unassigned) [I-602]
0.5 to 5 µM	COc1cc(CN(C(=O)Cc2ccc(-c3ccc(F)cc3O)nc2)C2C=CS(=O)(=O)C2)ccn1 (single isomer, unassigned) [I-130]
< 0.5 µM	COc1cc(CN(C(=O)C(c2ccc(-c3ccc(F)c(F)c3)cc2F)n2cccn2)[C@@H]2C=CS(=O)(=O)C2)ccn1 (single isomer, unassigned) [I-671, (2R*)-N-[(3R)-1,1-dioxo-2,3-dihydro-1lambda6-thiophen-3-yl]-N-[(2-methoxypyridin-4-yl)methyl]-2-(1H-pyrazol-1-yl)-2-{3,3′,4′-trifluoro-[1,1′-biphenyl]-4-yl}acetamide]
0.5 to 5 µM	O=C(Cc1ccc(S(F)(F)(F)(F)F)cc1)N(Cc1cscn1)C1C=CS(=O)(=O)C1 (stereo not shown) [I-657, N-(1,1-dioxo-2,3-dihydro-1lambda6-thiophen-3-yl)-2-[4-(pentafluoro-lambda6-sulfanyl)phenyl]-N-[(1,3-thiazol-4-yl)methyl]acetamide]
< 0.5 µM	CC(C)(O)c1cc(CN(C(=O)Cc2ccc(-n3cccc3)cc2F)C2C=CS(=O)(=O)C2)ccn1 (stereo not shown) [I-61, N-(1,1-dioxo-2,3-dihydro-1lambda6-thiophen-3-yl)-2-[2-fluoro-4-(1H-pyrrol-1-yl)phenyl]-N-{[2-(2-hydroxypropan-2-yl)pyridin-4-yl]methyl}acetamide]

From patent US20260297070A1, “CYCLIC [COMPOUND LEFT OUT] WRN INHIBITORS” (Nimbus Wadjet, Inc., priority 2023, published 2026)
